Reference: patent US9096624B2 (OSI Pharmaceuticals, LLC, priority 2009, dated 2015)

What was measured:
FAK [1] = target: T1, FAK (Homo sapiens, UniProt Q05397); assay: Biochemical HTRF (FRET) assay of FAK kinase activity; conditions: 100 uM ATP; biotinylated PGT substrate; read-out: Mean FAK Biochem FRET IC50 (100 uM ATP)
Method: Biochemical HTRF (FRET) Assay Protocol
The ability of compounds to inhibit the kinase activity of recombinant FAK enzyme was determined by a HTRF (FRET) assay using Biotinylated PGT (B*PGT) as a peptide substrate. […] The reaction is stopped after 1 h and phosphotyrosine content of Biotin*PGT is measured using anti-phosphotyrosine specific Mab label with Eu3+-cryptate (Cisbio) and XL665 labeled streptavidin (Cisbio) by Homogeneous Time-Resolved Fluorescence (HTRF) method.
The Stock Reagents used are as follows:
Enzyme Buffer Reaction Buffer plus 0.03% BSA.
Development Buffer: 1 part 200 mM EDTA/50 mM Tris-HCl pH 7.4; 2 parts 1M KF; 0.07% BSA.
Assay Protocol: The compounds were serially diluted from 10 uM to […] (1:5 dil, 10 points) in kinase buffer (1×) containing 3% DMSO and added 5 uL to each well of a 384-well plate except negative and positive control wells. Only DMSO was added to positive and negative control wells. For negative control wells, no ATP was added but only 5 uL of B*PGT was added. B*PGT (final conc 7.5 ng/well) and ATP (final conc 100 uM) was added in 5 uL to all wells except negative control wells. Reaction was started by adding FAK enzyme (final conc 0.2 ng/well) in 5 ul of enzyme buffer per well and incubated at RT for 1 h. Phospho-tyrosine content of B*BGT was detected by adding PT66-Cryptate (1:100 dil) and XL665 conjugated streptavidin (1:100 dil) to each well in 7.5 uL development buffer and incubating for 1 h at RT. The plate was read on Victor machine

FAK [2] = target: T1, FAK; assay: biochemical
FAK [3] = target: T1, FAK; assay: Cell-based capture ELISA for inhibition of FAK autophosphorylation [pY397] in MiaPaCa2 cells
Method: Cell-Based Assays for Inhibition of FAK Autophosphorylation: MiaPaCa2 and U87MG
ELISA kit from Invitrogen (KHO0441).
Reagents Provided in Biosource FAK [pY397]
The cells were then suspended in cell assay medium.

FAK [4] = target: T1, FAK; assay: Cell-based capture ELISA for inhibition of FAK autophosphorylation [pY397] in U87MG cells; conditions: Mean FAK Cell Mechanistic IC50 + 50% mP U87MG, + 50% mouse plasma
[5] = MIA-PaCa2 cells on fibronectin, 2 h, no plasma, read-out: Mean FAK Cell Mechanistic IC50 MIA-PaCa2
[6] = MIA-PaCa2 cells, + 50% human plasma, read-out: Mean FAK Cell Mechanistic IC50 + 50% hP MIA-PaCa2
[7] = MIA-PaCa2 cells, + 50% mouse plasma (Table 2), read-out: Mean FAK Cell Mechanistic IC50 + 50% mP MIA-PaCa2

T1 sequence (Q05397 whole entry): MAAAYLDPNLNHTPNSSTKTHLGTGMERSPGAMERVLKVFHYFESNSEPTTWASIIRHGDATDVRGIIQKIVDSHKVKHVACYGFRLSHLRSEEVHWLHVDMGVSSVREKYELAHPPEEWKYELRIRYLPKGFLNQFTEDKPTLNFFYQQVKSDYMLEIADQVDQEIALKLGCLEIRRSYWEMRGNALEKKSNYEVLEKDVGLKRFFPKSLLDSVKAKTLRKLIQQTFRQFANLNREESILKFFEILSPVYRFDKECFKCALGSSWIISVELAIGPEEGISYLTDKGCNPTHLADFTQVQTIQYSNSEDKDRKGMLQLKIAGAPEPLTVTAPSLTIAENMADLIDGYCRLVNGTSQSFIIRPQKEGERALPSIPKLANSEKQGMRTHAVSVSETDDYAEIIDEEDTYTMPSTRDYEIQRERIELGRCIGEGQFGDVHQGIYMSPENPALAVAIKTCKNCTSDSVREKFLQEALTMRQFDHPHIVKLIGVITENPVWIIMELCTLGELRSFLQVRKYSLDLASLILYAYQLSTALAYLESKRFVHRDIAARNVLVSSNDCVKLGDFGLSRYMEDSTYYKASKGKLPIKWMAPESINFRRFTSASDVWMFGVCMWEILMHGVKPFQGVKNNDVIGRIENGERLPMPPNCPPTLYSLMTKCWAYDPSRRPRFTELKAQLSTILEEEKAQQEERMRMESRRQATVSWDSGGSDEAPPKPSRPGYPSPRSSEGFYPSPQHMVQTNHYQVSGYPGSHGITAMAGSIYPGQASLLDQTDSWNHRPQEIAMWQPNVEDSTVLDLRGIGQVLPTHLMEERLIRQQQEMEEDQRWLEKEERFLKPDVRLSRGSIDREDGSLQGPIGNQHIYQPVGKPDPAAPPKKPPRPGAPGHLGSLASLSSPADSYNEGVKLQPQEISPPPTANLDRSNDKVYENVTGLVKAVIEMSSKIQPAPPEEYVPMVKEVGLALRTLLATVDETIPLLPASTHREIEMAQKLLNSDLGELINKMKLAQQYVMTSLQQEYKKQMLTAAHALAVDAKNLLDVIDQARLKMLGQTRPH

IC50 (FAK [3]; [7]) [nM]	Structure (SMILES)	IC50 (FAK [1]) [nM]	IC50 (FAK [2]) [nM]	IC50 (FAK [3]; [5]) [nM]	IC50 (FAK [3]; [6]) [nM]	IC50 (FAK [4]) [nM]	IC50 (FAK [3]; MIA-PaCa2 cells, + 50% mouse plasma (Table 3), read-out: Mean FAK Cell Mechanistic IC50 + 50% mP MIA-PaCa2) [nM]
–	CCOP(=O)(Cc1ccc(Nc2ncc(C(F)(F)F)c(NCc3cccnc3N(C)S(C)(=O)=O)n2)cc1)OCC [Example 1, diethyl [4-({4-[({2-[methyl(methylsulfonyl)amino]pyridin-3-yl}methyl)amino]-5-(trifluoromethyl)pyrimidin-2-yl}amino)benzyl]phosphonate]	< 1000	< 1000	< 1000	< 1000	–	–
–	CCOP(=O)(OCC)c1ccc(Nc2ncc(C(F)(F)F)c(NCc3cccnc3N(C)S(C)(=O)=O)n2)cc1 [Example 2, Diethyl [4-({4-[({2-[methyl(methylsulfonyl)amino]pyridin-3-yl}methyl)amino]-5-(trifluoromethyl)pyrimidin-2-yl}amino)phenyl]phosphonate]	1000 to 10000	–	–	–	–	–
–	CCOP(=O)(Cc1cccc(Nc2ncc(C(F)(F)F)c(NCc3cccnc3N(C)S(C)(=O)=O)n2)c1)OCC [Example 4, Diethyl [3-({4-[({2-[methyl(methylsulfonyl)amino]pyridin-3-yl}methyl)amino]-5-(trifluoromethyl)pyrimidin-2-yl}amino)benzyl]phosphonate]	1000 to 10000	< 1000	1000 to 10000	1000 to 10000	–	–
–	CCOP(=O)(OCC)C(C)c1ccc(Nc2ncc(C(F)(F)F)c(NCc3cccnc3N(C)S(C)(=O)=O)n2)cc1 (stereo not drawn) [Example 5, Diethyl {1-[4-({4-[({2-[methyl(methylsulfonyl)amino]pyridin-3-yl}methyl)amino]-5-(trifluoromethyl)pyrimidin-2-yl}amino)phenyl]ethyl}phosphonate]	< 1000	–	< 1000	< 1000	–	–
–	CN(c1ncccc1CNc1nc(Nc2ccc(P(=O)(O)O)cc2)ncc1C(F)(F)F)S(C)(=O)=O [Example 6, [4-({4-[({2-[Methyl(methylsulfonyl)amino]pyridin-3-yl}methyl)amino]-5-(trifluoromethyl)pyrimidin-2-yl}amino)phenyl]phosphonic acid]	< 1000	< 1000	1000 to 10000	–	–	–
–	CCOP(=O)(OCC)C(C)(C)c1ccc(Nc2ncc(C(F)(F)F)c(NCc3cccnc3N(C)S(C)(=O)=O)n2)cc1 [Example 7]	< 1000	–	< 1000	< 1000	–	–
1000 to 10000	CC(C)OP(=O)(Cc1ccc(Nc2ncc(C(F)(F)F)c(NCc3cccnc3N(C)S(C)(=O)=O)n2)cc1)OC(C)C [Example 27, dipropan-2-yl [4-({4-[({2-[methyl(methylsulfonyl)amino]pyridin-3-yl}methyl)amino]-5-(trifluoromethyl)pyrimidin-2-yl}amino)benzyl]phosphonate]	1000 to 10000	–	1000 to 10000	1000 to 10000	–	–
1000 to 10000	CN(c1ncccc1CNc1nc(Nc2ccc(CP(=O)(O)O)cc2)ncc1C(F)(F)F)S(C)(=O)=O [Example 41, [4-({4-[({2-[Methyl(methylsulfonyl)amino]pyridin-3-yl}methyl)amino]-5-(trifluoromethyl)pyrimidin-2-yl}amino)benzyl]phosphonic acid]	1000 to 10000	< 1000	1000 to 10000	1000 to 10000	–	–
–	CCOP(C)(=O)Cc1cccc(Nc2ncc(C(F)(F)F)c(NCc3cccnc3N(C)S(C)(=O)=O)n2)c1 (stereo not drawn) [Example 46, Ethyl methyl[3-({4-[({2-[methyl(methylsulfonyl)amino]pyridin-3-yl}methyl)amino]-5-(trifluoromethyl)pyrimidin-2-yl}amino)benzyl]phosphinate]	1000 to 10000	–	< 1000	< 1000	–	–
–	CCOP(=O)(Cc1ccc(Nc2ncc(C(F)(F)F)c(Nc3ccc([C@H]4CC[C@H](O)CC4)c4c3C(=O)N(C)C4)n2)nc1)OCC [Example 309, Diethyl [(6-{[4-{[7-(trans-4-hydroxycyclohexyl)-2-methyl-3-oxo-2,3-dihydro-1H-isoindol-4-yl]amino}-5-(trifluoromethyl)pyrimidin-2-yl]amino}pyridin-3-yl)methyl]phosphonate]	–	< 1000	–	–	< 1000	< 1000
